# Results: paper PMC5635695, “More than Enzymes That Make or Break Cyclic Di-GMP—Local Signaling in the Interactome of GGDEF/EAL Domain Proteins of Escherichia coli” (mBio, 2017)
# Biological target: T1, CdgI GGDEF domain (GGDEF^CdgI) (Escherichia coli, UniProt P76236)
# T1 construct: isolated cytoplasmic GGDEF domain (degenerate A-site, intact I-site), N-terminal MASE4 membrane domain removed; N-terminal His6 tag kept; pQE30xa in E. coli Fi8202
# Experiment: UV cross-linking with [alpha-32P]c-di-GMP, SDS-PAGE
# Assay type: binding
# Conditions: 42 nM radiolabelled c-di-GMP, competition with unlabelled c-di-GMP; labelled compound
# T1 sequence (P76236 315-491): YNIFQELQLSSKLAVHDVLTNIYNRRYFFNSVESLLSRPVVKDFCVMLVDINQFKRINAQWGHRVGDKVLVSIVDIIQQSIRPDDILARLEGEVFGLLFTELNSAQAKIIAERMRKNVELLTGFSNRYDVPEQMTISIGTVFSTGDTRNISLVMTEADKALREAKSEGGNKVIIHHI
smiles,measurement,value
Nc1nc2c(ncn2[C@@H]2O[C@@H]3COP(=O)(O)O[C@H]4[C@@H](O)[C@H](n5cnc6c(=O)[nH]c(N)nc65)O[C@@H]4COP(=O)(O)O[C@H]3[C@H]2O)c(=O)[nH]1 [c-di-GMP],"UV cross-linking with [alpha-32P]c-di-GMP, SDS-PAGE",We observed that purified CdgI could indeed bind c-di-GMP
